This passage reports minimal effective dose results from US5401772A, “Heteroacetic acid derivatives” (Ciba-Geigy Corporation, priority 1993, dated 1995).

Common to all, as to format: in vivo
For test [1], the system named is serum cholesterol. Put plainly: Cholesterol lowering activity in the rat (high cholesterol diet). As to conditions: po, 168 h, p.o., 7 consecutive days, read-out: daily dose that significantly lowers serum cholesterol. The protocol: Cholesterol lowering activity is determined in the rat as follows:
(§1) Male Sprague-Dawley rats (230-250 g) (Taconic Farms) are maintained ad libium on water and a high cholesterol diet (1.5% cholesterol and 0.5% cholic acid) for two weeks prior to and during the 7-day treatment period. Groups of animals are treated orally by gavage with the vehicle alone or with test compound for 7 consecutive days. After the host dose, animals are fasted for 18 hours and blood is collected. Blood samples are centrifuged at 2500 rpm for 10 minutes to prepare plasma for total cholesterol determination as well as LDL and HDL cholesterol concentrations. HDL values are determined after LDL/VLDL precipitation (Warnick and Albers, 1978). All samples are analyzed enzymatically for cholesterol with a diagnostic reagent kit (Sigma Chemical Co., St. Louis, MO). The analysis is performed on a Bio-Mek automated work station. LDL/VLDL fractions are precipitated in the following manner: 0.35 ml of plasma is aliquoted into Eppendorf tubes to which 12 μl of 2M manganese chloride, 11.2 μl of sodium heparin (Porcine Intestinal, 5000 units/ml), and 8.3 μl of normal saline are added. The samples are vortexed and are placed on ice for 15 minutes, then centrifuged at 4° C. for 10 minutes at 1300 rpm and the supernatant is enzymatically analyzed for cholesterol. […]

In test [2] the test system is serum cholesterol. Put plainly: Cholesterol-lowering activity in normocholesterolemic dogs. The settings on record: Canis lupus familiaris, po, 120 h, dog, p.o., 5 days, regular chow, read-out: daily dose that significantly lowers serum cholesterol. The protocol:
as §1, with “LDL/VLDL fractions are precipitated in the following manner: 0.35 ml of plasma is aliquoted into Eppendorf tubes to which 12 μl of 2M manganese chloride, 11.2 μl of sodium heparin (Porcine Intestinal, 5000 units/ml), and 8.3 μl of normal saline are added.” left out
(§2) Cholesterol-lowering activity can also be evaluated in normocholesterolemic dogs fed regular chow following the procedure described above, by administration of test compound orally for 5 days; also in normolipomic cynomolgus monkeys.

For test [3], the system named is serum cholesterol. Put plainly: Cholesterol-lowering activity in normolipomic cynomolgus monkeys. As to conditions: Macaca fascicularis, po, monkey, p.o., read-out: daily dose that significantly lowers serum cholesterol. The protocol:
as §1, with “LDL/VLDL fractions are precipitated in the following manner: 0.35 ml of plasma is aliquoted into Eppendorf tubes to which 12 μl of 2M manganese chloride, 11.2 μl of sodium heparin (Porcine Intestinal, 5000 units/ml), and 8.3 μl of normal saline are added.” left out
as §2

In the case of `Cc1cc(NC(=O)C(=O)O)cc(C)c1Oc1ccc(O)c(C(C)C)c1` [N-[3,5-dimethyl-4-(4'-hydroxy-3'-isopropylphenoxy)-phenyl]oxamic acid], the values for the minimal effective dose with serum cholesterol [1] and in the test with serum cholesterol [2] were roughly 0.02 mg/kg/day and roughly 0.03 mg/kg/day, respectively.
As for `CCOC(=O)C(=O)Nc1cc(C)c(Oc2ccc(O)c(C(O)c3ccc(F)cc3)c2)c(C)c1` (centres unmarked) [ethyl N-[4-[3'-[(4-fluorophenyl) hydroxymethyl]-4'-hydroxyphenoxy]-3,5-dimethylphenyl]oxamate], the results for the minimal effective dose with serum cholesterol [1], with serum cholesterol [2] and in the test with serum cholesterol [3] were roughly 0.005 mg/kg/day, roughly 0.01 mg/kg/day and roughly 0.001 mg/kg/day, respectively.
